Data taken from PubChem BioAssay AID2060883 (Molecular Pharmacology Branch, DTP, NCI, 2025).

Test system: 843782-103-R-J1-PDC complex spheroid viability
Experiment: Anticancer human tumor 843782-103-R-J1-PDC patient-derived lung adenocarcinoma cell line growth inhibition [RAS]
Settings: for viability, T/C: stronger effect = lower value
From the text: RAS pathway inhibitors in Combinations in Complex Spheroids
A high-throughput screen of multi-cell type tumor spheroids was designed to identify active combinations of RAS pathway inhibitors and targeted small molecules. Complex spheroids include a stromal component modeled by human endothelial cells (HUVEC) and fibroblasts modeled by human mesenchymal stem cells (MSCs). The concentration ranges selected for each drug and investigational agent were based upon clinically achievable concentrations if the clinical Cmax of the agent was known.
Compounds. The drugs and investigational agents: abemaciclib (NSC768073), cobimetinib (NSC768068), divarasib (GDC6063, NSC841802), docetaxel (NSC628503), GDC-1971 (RLY-1971, NSC841576), gemcitabine (NSC613327), inavolisib (NSC800729), ipatasertib (NSC767898), KB-0742 (NSC834161), MRTX-1133 (NSC836407), osimertinib (NSC779217), RMC-4630 (NSC839698), RMC-6236 (NSC851965), RMC-6291 (NSC852671), Ro-3306 (NSC812927), sapanisertib (NSC764658), SN-38 (NSC673596), staurosporine (NSC755774), SY5609 (NSC837396), and tovorafenib (DAY101, NSC766906), were obtained from the National Cancer Institute (NCI) Developmental Therapeutics Program Chemical Repository. The FDA-approved anticancer drug set is available from the NCI Developmental Therapeutics Program. […] The stock solutions were prepared in dimethyl sulfoxide (DMSO, Sigma-Aldrich, St. Louis, MO, cat. D2650) at 800-fold the tested concentration and stored at -70 degrees C prior to their use. All drugs and investigational agents were tested over a range starting from a high concentration at or near the clinical Cmax and decreasing in half-log increments. If the clinical Cmax for an agent had not been determined, the highest concentration tested was 10 microM.
Cell Culture. All cells were maintained in an incubator at 37 degrees C and 5% CO2 with 95% humidity. The PDC lines were cultured according to standard operating procedures established by the NCI PDMR. All PDCs were thawed and cultured in Matrigel-coated flasks prepared with a working solution of 1X Ham's F-12 nutrient mix, without supplementation (Invitrogen, Waltham, MA, cat. 11765054), 100 U/mL penicillin-streptomycin (Invitrogen, cat. 15140122), and 2.5% Matrigel (Corning Inc., Corning, NY, cat. 354248) for the first three passages. The 362531-283-R-J2-PDC and 782815-120-R-J1-PDC lines were cultured in 6C/Colon 1B media, which includes advanced DMEM/F-12 (Thermo Fisher Scientific, cat. 12634028), 10 mM HEPES (Thermo Fisher Scientific, cat. 15630080), 1X GlutaMAX supplement (Thermo Fisher Scientific, cat. 35050061), 0.1 mg/mL primocin (InvivoGen, San Diego, CA, cat. ant-pm-2), 10% defined fetal bovine serum, heat inactivated (HyClone Laboratories Inc., Logan, UT, cat. SH30070.03HI), 50% L-WRN conditioned media (ATCC, cat. CRL-3276), 1.25 mM N-Acetyl-L-cysteine (Sigma-Aldrich, cat. A9165), 10 mM nicotinamide (Sigma-Aldrich, cat. N0636), 1X B-27 supplement (Thermo Fisher Scientific, cat. 17504044), 1X N-2 supplement (Thermo Fisher Scientific, cat. 17502048), 50 ng/mL human EGF (Thermo Fisher Scientific, cat. PHG0311), and 10 microM Y-27632 dihydrochloride (Tocris Bioscience, cat. 1254). The K12877-001-R-J1-PDC line was cultured in 6I media, which includes all 6C/Colon 1B media plus 10 ng/mL human FGF-10 (PeproTech, cat. 100-26), 1 ng/mL human FGF-2 (PeproTech, cat. 100-18B), 1 µM prostaglandin E2 (Tocris Bioscience, cat. 2296), […] hydrocortisone (Sigma-Aldrich, cat. H4001), and […] bovine insulin (Sigma-Aldrich, cat. I6634). The K86415-001-R-J1-PDC line was cultured in 6D media, which includes all 6C/Colon 1B media components minus the L-WRN conditioned media. The 485176-168-R4-J1-PDC was cultured in PANC media, which includes all 6C/Colon 1B media plus 100 ng/mL human FGF-10 (PeproTech, cat. 100-26), 500 nM SB-431542 (Selleckchem, cat. S1067), and 10 nM gastrin (Tocris Bioscience, cat. 3006). […]

[1] = curve of first compound, second compound 0.0316 µM
[2] = curve of first compound, second compound 0.1 µM
[3] = curve of first compound, second compound 0.316 µM
[4] = curve of first compound, second compound 1 µM
[5] = second compound 0.0316 µM, first compound 0.0316 µM
[6] = second compound 0.0316 µM, first compound 0.1 µM
[7] = second compound 0.0316 µM, first compound 0.316 µM
[8] = second compound 0.0316 µM, first compound 1 µM
[9] = second compound 0.1 µM, first compound 0.0316 µM
[10] = second compound 0.1 µM, first compound 0.1 µM
[11] = second compound 0.1 µM, first compound 0.316 µM
[12] = second compound 0.1 µM, first compound 1 µM
[13] = second compound 0.316 µM, first compound 0.0316 µM
[14] = second compound 0.316 µM, first compound 0.1 µM
[15] = second compound 0.316 µM, first compound 0.316 µM
[16] = second compound 0.316 µM, first compound 1 µM
[17] = second compound 1 µM, first compound 0.0316 µM
[18] = second compound 1 µM, first compound 0.1 µM
[19] = second compound 1 µM, first compound 0.316 µM
[20] = second compound 1 µM, first compound 1 µM
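Further: viability read after seven days of compound exposure.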

`CCN1CCN(Cc2ccc(Nc3ncc(F)c(-c4cc(F)c5nc(C)n(C(C)C)c5c4)n3)nc2)CC1` + C#Cc1c(F)ccc2cc(O)cc(-c3ncc4c(N5CC6CCC(C5)N6)nc(OCC56CCCN5CC(F)C6)nc4c3F)c12 showed an IC50 [1] greater than 1000 nM, an IC50 [2] greater than 1000 nM and an IC50 [3] greater than 1000 nM. It also gave an IC50 [4] of 905 nM, an IC50 (curve of first compound, second compound 3.16 µM) of 415 nM and an IC50 (curve of first compound, second compound 10 µM) of 76.7 nM. It also gave a viability, T/C (second compound 0.0316 µM, first compound 0.00316 µM) of 108%, a viability, T/C (second compound 0.0316 µM, first compound 0.01 µM) of 93% and a viability, T/C [5] of 101%. It also gave a viability, T/C [6] of 105%, a viability, T/C [7] of 101% and a viability, T/C [8] of 71%. The viability, T/C (second compound 0.1 µM, first compound 0.00316 µM) was 107%, the viability, T/C (second compound 0.1 µM, first compound 0.01 µM) was 104% and the viability, T/C [9] was 93.3%. It also gave a viability, T/C [10] of 97.3%, a viability, T/C [11] of 97.1% and a viability, T/C [12] of 75%. It also gave a viability, T/C (second compound 0.316 µM, first compound 0.00316 µM) of 107%, a viability, T/C (second compound 0.316 µM, first compound 0.01 µM) of 101% and a viability, T/C [13] of 103%. It also gave a viability, T/C [14] of 99.3%, a viability, T/C [15] of 86.7% and a viability, T/C [16] of 65%. For the same compound, the viability, T/C (second compound 1 µM, first compound 0.00316 µM) was 105%, the viability, T/C (second compound 1 µM, first compound 0.01 µM) was 92.6% and the viability, T/C [17] was 93.9%. For the same compound, the viability, T/C [18] was 89.5%, the viability, T/C [19] was 75.9% and the viability, T/C [20] was 46.9%. It also gave a viability, T/C (second compound 3.16 µM, first compound 0.00316 µM) of 87.2%, a viability, T/C (second compound 3.16 µM, first compound 0.01 µM) of 88.6% and a viability, T/C (second compound 3.16 µM, first compound 0.0316 µM) of 79.5%. The viability, T/C (second compound 3.16 µM, first compound 0.1 µM) was 69.4%, the viability, T/C (second compound 3.16 µM, first compound 0.316 µM) was 53.1% and the viability, T/C (second compound 3.16 µM, first compound 1 µM) was 40%. It also gave a viability, T/C (second compound 10 µM, first compound 0.00316 µM) of 67%, a viability, T/C (second compound 10 µM, first compound 0.01 µM) of 60.9% and a viability, T/C (second compound 10 µM, first compound 0.0316 µM) of 57.6%. The viability, T/C (second compound 10 µM, first compound 0.1 µM) was 46.2%, the viability, T/C (second compound 10 µM, first compound 0.316 µM) was 40.6% and the viability, T/C (second compound 10 µM, first compound 1 µM) was 26.6%.

`CC(Nc1ccc2c(c1)OCCn1cc(N3C(=O)OCC3C(F)F)nc1-2)C(N)=O` (stereo unspecified) + C=CC(=O)N1CCN(c2nc(OCC3CCCN3C)nc3c(F)c(-c4nc(N)cc(C)c4C(F)(F)F)c(Cl)cc23)C(C)C1 gave an IC50 (curve of first compound, second compound 0.00316 µM) of 129 nM, an IC50 (curve of first compound, second compound 0.01 µM) of 93.6 nM and an IC50 [1] of 96.2 nM. The IC50 [2] was 133 nM, the IC50 [3] was 114 nM and the IC50 [4] was 118 nM. The viability, T/C (second compound 0.00316 µM, first compound 0.0316 µM) was 78.7%, the viability, T/C (second compound 0.00316 µM, first compound 0.1 µM) was 51.4% and the viability, T/C (second compound 0.00316 µM, first compound 0.316 µM) was 38%. The viability, T/C (second compound 0.00316 µM, first compound 1 µM) was 24.7%, the viability, T/C (second compound 0.00316 µM, first compound 3.16 µM) was 17.9% and the viability, T/C (second compound 0.00316 µM, first compound 10 µM) was 9.53%. It also gave a viability, T/C (second compound 0.01 µM, first compound 0.0316 µM) of 69%, a viability, T/C (second compound 0.01 µM, first compound 0.1 µM) of 49.3% and a viability, T/C (second compound 0.01 µM, first compound 0.316 µM) of 32.3%. The viability, T/C (second compound 0.01 µM, first compound 1 µM) was 25.1%, the viability, T/C (second compound 0.01 µM, first compound 3.16 µM) was 19.7% and the viability, T/C (second compound 0.01 µM, first compound 10 µM) was 10.9%. The viability, T/C [5] was 69.3%, the viability, T/C [6] was 49.5% and the viability, T/C [7] was 33.6%. The viability, T/C [8] was 23.1%, the viability, T/C (second compound 0.0316 µM, first compound 3.16 µM) was 20.4% and the viability, T/C (second compound 0.0316 µM, first compound 10 µM) was 9.06%. It also gave a viability, T/C [9] of 67.8%, a viability, T/C [10] of 57.8% and a viability, T/C [11] of 30%. The viability, T/C [12] was 23.1%, the viability, T/C (second compound 0.1 µM, first compound 3.16 µM) was 15.4% and the viability, T/C (second compound 0.1 µM, first compound 10 µM) was 10.2%. It also gave a viability, T/C [13] of 65.7%, a viability, T/C [14] of 54.2% and a viability, T/C [15] of 33.5%. The viability, T/C [16] was 24.3%, the viability, T/C (second compound 0.316 µM, first compound 3.16 µM) was 17.4% and the viability, T/C (second compound 0.316 µM, first compound 10 µM) was 8.73%. It also gave a viability, T/C [17] of 74.3%, a viability, T/C [18] of 45.4% and a viability, T/C [19] of 40.6%. It also gave a viability, T/C [20] of 26.5%, a viability, T/C (second compound 1 µM, first compound 3.16 µM) of 17.9% and a viability, T/C (second compound 1 µM, first compound 10 µM) of 8.86%.

With `CCc1c2c(nc3ccc(O)cc13)-c1cc3c(c(=O)n1C2)COC(=O)[C@]3(O)CC` the viability, T/C (compound 0.000949 µM) was 94.2% [middle of 4 runs], the viability, T/C (compound 0.003 µM) was 26% [middle of 4 runs] and the viability, T/C (compound 0.00949 µM) was 6.94% [middle of 4 runs]. The viability, T/C (compound 0.03 µM) was 3.31% [middle of 4 runs], the viability, T/C (compound 0.0949 µM) was 1.33% [middle of 4 runs] and the viability, T/C (compound 0.3 µM) was 0.94% [middle of 4 runs]. For the same compound, the IC50 (curve of compound) was 1.88 nM [middle of 4 runs].
